IC50 data for 29 molecules are collected here from patent publication US11021481B2, “Substituted isoindolin-1-ones and 2,3-dihydro-1h-pyrrolo[3,4-c]pyridin-1-ones as HPK1 antagonists” (Nimbus Saturn, Inc., priority 2019, dated 2021).

A value given as a limit tells only on which side of the number the result lay.

Chain of HPK1 (Q92918 whole entry): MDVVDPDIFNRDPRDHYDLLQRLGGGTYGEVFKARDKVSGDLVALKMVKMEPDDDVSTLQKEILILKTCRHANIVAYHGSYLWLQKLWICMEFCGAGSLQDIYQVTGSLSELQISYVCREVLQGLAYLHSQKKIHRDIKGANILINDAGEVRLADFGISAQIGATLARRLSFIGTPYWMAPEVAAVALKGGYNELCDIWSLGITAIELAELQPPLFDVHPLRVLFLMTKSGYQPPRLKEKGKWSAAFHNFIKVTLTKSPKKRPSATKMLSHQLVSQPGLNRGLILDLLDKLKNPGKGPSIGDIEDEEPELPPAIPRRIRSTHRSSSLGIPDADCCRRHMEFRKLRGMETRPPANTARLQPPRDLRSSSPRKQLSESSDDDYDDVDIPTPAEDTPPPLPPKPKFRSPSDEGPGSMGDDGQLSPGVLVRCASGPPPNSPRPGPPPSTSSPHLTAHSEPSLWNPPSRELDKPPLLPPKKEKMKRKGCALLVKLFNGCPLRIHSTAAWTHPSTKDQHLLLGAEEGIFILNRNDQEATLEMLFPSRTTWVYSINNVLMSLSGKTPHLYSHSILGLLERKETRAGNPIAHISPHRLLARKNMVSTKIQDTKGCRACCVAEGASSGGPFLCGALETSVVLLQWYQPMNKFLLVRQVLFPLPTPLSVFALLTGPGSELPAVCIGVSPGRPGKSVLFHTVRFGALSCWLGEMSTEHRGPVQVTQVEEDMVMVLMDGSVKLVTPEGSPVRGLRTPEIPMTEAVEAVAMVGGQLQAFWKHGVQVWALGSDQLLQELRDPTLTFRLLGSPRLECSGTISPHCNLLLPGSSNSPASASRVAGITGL

This assay deals with HPK1 (Homo sapiens (Human), UniProt Q92918). Kind of assay: HPK1 biochemical enzyme assay (microfluidic mobility shift assay). Particulars: 1.5 nM HPK1, ATP 1 mM final, 30 min preincubation, 60 min at RT, Caliper EZ Reader; read-out: HPK1 1000UMATP caliper IC50. The method, boiled down:
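Mobility shift readout of HPK1 activity after a 60 min RT reaction with 1 mM ATP, 1 μM substrate and 5 mM MgCl2. Enzyme/substrate mix was first exposed to compounds for 30 min, using ten-point curves topping at 3 μM final.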
The term IC50 denotes the midpoint of a concentration-inhibition curve. Take `Cn1ccc2c(-c3ncc(Nc4ccc([C@H]5CCOC5)cn4)c4c3CNC4=O)ccnc21` [I-217, (R)-4-(1-methyl-1H-pyrrolo[2,3-b]pyridin-4-yl)-7-((5-(tetrahydro-furan-3-yl)pyridin-2-yl)amino)-2,3-dihydro-1H-pyrrolo[3,4-c]pyridin-1-one]: the IC50 was less than 100 nM.
Regarding `CN(C)[C@@H]1COCCN(c2ccc(Nc3ccc(-c4cnc5cc(F)ccn45)c4c3C(=O)NC4)nc2)C1` [I-518, (S)-7-((5-(6-(dimethylami-no)-1,4-oxazepan-4-yl)pyridin-2-yl)amino)-4-(7-fluoroimidazo [1,2-a]pyridin-3-yl)isoindolin-1-one], the 50% inhibitory concentration (IC50) is less than 100 nM.
Consider `O=C1NCc2c(-c3cnc4cc(F)ccn34)ncc(Nc3ccc(N4CCC(O)CC4)cn3)c21` [I-167, 4-(7-fluoroimidazo [1,2-a]pyridin-3-yl)-7-[[5-(4-hydroxy-1-piperidyl)-2-pyridyl]amino]-2,3-dihydropyrrolo [3,4-c]pyridin-1-one], for which the 50% inhibitory concentration (IC50) was less than 100 nM.
In the case of `CN1CCO[C@@]2(CCCN(c3ccc(Nc4ccc(-c5cnc6cc(F)ccn56)c5c4C(=O)NC5)nc3)C2)C1` [I-506, (S)-4-(7-fluoroimidazo [1,2-a]pyridin-3-yl)-7-((5-(4-methyl-1-oxa-4,8-diazaspiro[5.5]undecan-8-yl)pyridin-2-yl)amino)isoin-dolin-1-one] it was less than 100 nM; in that of `O=C1NCc2c(-c3cnc4cc(F)ccn34)ccc(Nc3ccc(N4CC[C@@H](O)[C@H](F)C4)cn3)c21` [I-399, 7-((5-((3R,4R)-3-fluoro-4-hydroxy-piperidin-1-yl)pyridin-2-yl)amino)-4-(7-fluoroimidazo [1,2-a]pyridin-3-yl)isoindolin-1-one], less than 100 nM; in that of `O=C1NCc2c(-c3cnc4cc(F)ccn34)ccc(Nc3ccc([C@H]4CCOC4)c(CN4CCC[C@H]4CO)n3)c21` [I-827, 4-(7-fluoroimidazo [1,2-a]pyridin-3-yl)-7-((6-(((S)-2-(hydroxymeth-yl)pyrrolidin-1-yl]methyl)-5-((R)-THF-3-yl)pyridin-2-yl)amino)isoin-dolin-1-one], less than 100 nM.
As for `CC(C)(O)[C@H]1CN(c2ccc(Nc3cnc(-c4cnc5c(Cl)cccn45)c4c3C(=O)NC4)nc2)CCO1` [I-462], the concentration for half-maximal inhibition (IC50) is less than 100 nM.
As to `Cc1c[nH]c2nccc(-c3ccc(Nc4ccc(N5CCN(C)CC5)cn4)c4c3CNC4=O)c12` [I-42, 7-[[5-(4-methylpiperazin-1-yl)-2-pyridyl]amino]-4-(3-methyl-1H-pyrrolo[2,3-b]pyridin-4-yl)isoindolin-1-one], the half-maximal inhibitory concentration (IC50) is less than 100 nM.
As to `CN1C[C@@H](c2ccc(Nc3ccc(-c4cnc5cnccn45)c4c3C(=O)NC4)nc2)CCC1=O` [I-325, (R)-4-(imidazo[1,2-a]pyrazin-3-yl)-7-((5-(1-methyl-6-oxopiperidin-3-yl)pyridin-2-yl)amino)isoin-dolin-1-one], the IC50 is less than 100 nM.
With `O=C1NCc2c(-c3cnc4cc(F)ccn34)ccc(Nc3ccc([C@H]4CCOC4)c(CN4CCC4)n3)c21` [I-755, (R)-7-((6-(azetidin-1-ylmethyl)-5-(tetrahydrofuran-3-yl)pyridin-2-yl)amino)-4-(7-fluoroimidazo [1,2-a]pyridin-3-yl)isoindolin-1-one] the figure was less than 100 nM; with `CN1CCN(c2ccc(Nc3cnc(-c4c[nH]c5cc(F)ccc45)c4c3C(=O)NC4)nc2)CC1` [I-53, 4-(6-fluoro-1H-indol-3-yl)-7-[[5-(4-methylpiperazin-1-yl)-2-pyridyl]amino]-2,3-dihydropyrrolo [3,4-c]pyridin-1-one], 100 to 1000 nM; with `Cc1nccn2c(-c3ccc(Nc4ccc(N5CCC(O)CC5)cn4)c4c3CNC4=O)cnc12` [I-158, 7-[[5-(4-hydroxy-1-piperidyl)-2-pyridyl]amino]-4-(8-methylimidazo [1,2-a]pyrazin-3-yl)isoindolin-1-one], less than 100 nM.
As for `C[C@H]1NC(=O)c2c(Nc3ccc(N4CCC(O)CC4)cn3)ccc(-c3cnc4ccccn34)c21` [I-317, (R)-7-((5-(4-hydroxy-piperidin-1-yl)pyridin-2-yl)amino)-4-(imidazo[1,2-a]pyridin-3-yl)-3-methylisoindo-lin-1-one], the half-maximal inhibitory concentration (IC50) is less than 100 nM.
Turning to `Cn1ccc2c(-c3ncc(Nc4cccc(N5CC[C@@H]6CNC[C@@H]65)n4)c4c3CNC4=O)ccnc21` [I-441, 7-((6-((3aR,6aR)-hexahydro-pyrrolo[3,4-b]pyrrol-1(2H)-yl)pyridin-2-yl)amino)-4-(1-methyl-1H-pyrrolo[2,3-b)pyridin-4-yl)-2,3-dihydro-1H-pyrrolo[3,4-c]pyridin-1-one], the concentration for half-maximal inhibition (IC50) was in the range of 100 to 1000 nM.
In the case of `O=C1NCc2c(-c3cnc4n3CCCC4)ccc(Nc3ccc(N4CCNCC4)cn3)c21` [I-80, 7-[(5-piperazin-1-yl-2-pyridyl)amino]-4-(5,6,7,8-tetrahydro-imidazo[1,2-a]pyridin-3-yl)isoindolin-1-one] it was less than 100 nM; in that of `COCC1(O)CCN(c2ccc(Nc3ccc(-c4cnc5cc(F)ccn45)c4c3C(=O)NC4)nc2CN(C)C)CC1` [I-782, 7-((6-((dimethylamino)-methyl)-5-(4-hydroxy-4-(methoxymeth-yl)piperidin-1-yl)pyridin-2-yl)amino)-4-(7-fluoroimidazo [1,2-a]pyridin-3-yl)isoindolin-1-one], less than 100 nM; in that of `CN1CC[C@@]12CCN(c1cccc(Nc3cnc(-c4ccnc5c4ccn5C)c4c3C(=O)NC4)n1)C2` [I-616, (S)-7-((6-(1-methyl-1,6-diazaspiro[3,4]octan-6-yl)pyridin-2-yl)amino)-4-(1-methyl-1H-pyrrolo[2,3-b)pyridin-4-yl)-2,3-dihydro-1H-pyrrolo[3,4-c]pyridin-1-one], less than 100 nM.
In the case of `CN(C)Cc1nc(Nc2cnc(-c3ccnc4c3ccn4C)c3c2C(=O)NC3)ccc1N1CCO[C@H](C(C)(C)O)C1` [I-770, (S)-7-((6-((dimethylamino)-methyl)-5-(2-(2-hydroxypropan-2-yl)morpholino)pyridin-2-yl)amino)-4-(1-methyl-1H-pyrrolo[2,3-b]pyridin-4-yl)-2,3-dihydro-1H-pyrrolo[3,4-c]pyridin-1-one] it was less than 100 nM; in that of `O=C1NCc2c(-c3cnc4cc(F)ccn34)ccc(Nc3ccc(N4CCC[C@@](O)(CN5CCOCC5)C4)cn3)c21` [I-656, (R)-4-(7-fluoroimidazo [1,2-a]pyridin-3-yl)-7-((5-(3-hydroxy-3-(morpholinomethyl)piperidin-1-yl)pyridin-2-yl)amino)isoin-dolin-1-one], less than 100 nM; in that of `CN1CCN(c2ccc(Nc3ccc(-c4cnc5[nH]ccc5c4)c4c3C(=O)NC4)nc2)CC1` [I-45, 7-[[5-(4-methylpiperazin-1-yl)-2-pyridyl]amino]-4-(1H-pyrrolo[2,3-b]pyridin-5-yl)isoindolin-1-one], less than 100 nM.
In the case of `CN(C)Cc1nc(Nc2ccc(-c3cnc4cc(F)ccn34)c3c2C(=O)NC3)cnc1[C@H]1CCOC1` [I-800, (R)-7-((6-((dimethylamino)-methyl)-5-(tetrahydrofuran-3-yl)pyrazin-2-yl)amino)-4-(7-fluoroimidazo [1,2-a]pyridin-3-yl)isoindolin-1-one] it was less than 100 nM; in that of `CNCc1nc(Nc2ccc(-c3cnc4cc(F)ccn34)c3c2C(=O)NC3)ccc1C1CCOC1` (stereo in doubt) [I-723, (R)-4-(7-fluoroimidazo [1,2-a]pyridin-3-yl)-7-((6-((methyl-amino)methyl)-5-(tetrahydrofuran-3-yl)pyridin-2-yl)amino)isoin-dolin-1-one], less than 100 nM; in that of `COCCn1ccc2c(-c3ccc(Nc4ccc(N5CCN(C)CC5)cn4)c4c3CNC4=O)ccnc21` [I-47, 4-[1-(2-methoxyethyl)pyrrolo[2,3-b]pyridin-4-yl]-7-[[5-(4-methylpiperazin-1-yl)-2-pyridyl]amino] isoindolin-1-one], less than 100 nM.
With `Cc1ccn2c(-c3ccc(Nc4ccc(N5CCO[C@@H](C(C)(C)O)C5)cn4)c4c3CNC4=O)cnc2n1` [I-646, (R)-7-((5-(2-(2-hydroxypropan-2-yl)morpholino)pyridin-2-yl)amino)-4-(7-methylimidazo [1,2-a]pyrimidin-3-yl) isoindolin-1-one], the concentration for half-maximal inhibition (IC50) was less than 100 nM.
In the case of `CN(C)C(C)(C)[C@@]1(O)CCCN(c2ccc(Nc3ccc(-c4cnc5cc(F)ccn45)c4c3C(=O)NC4)nc2)C1` [I-716, (R)-7-((5-(3-(2-(dimethylainino)propan-2-yl)-3-hydroxy-piperidin-1-yl)pyridin-2-yl)amino)-4-(7-fluoroimidazo [1,2-a]pyridin-3-yl)isoindolin-1-one] it was less than 100 nM; in that of `CC(C)N1CCN(c2ccc(Nc3cnc(-c4ccnc5c4ccn5C)c4c3C(=O)NC4)nc2)CC1` [I-319, 7-((5-(4-isopropylpiperazin-1-yl)pyridin-2-yl)amino)-4-(1-methyl-1H-pyrrolo[2,3-b]pyridin-4-yl)-2,3-dihydro-1H-pyrrolo[3,4-c]pyridin-1-one], less than 100 nM; in that of `Cc1ccc2ncc(-c3ccc(Nc4ccc(N5CCNCC5)cn4)c4c3CNC4=O)n2c1` [I-86, 4-(6-methylimidazo [1,2-a]pyridin-3-yl)-7-[(5-piperazin-1-yl-2-pyridyl)amino] isoindolin-1-one], less than 100 nM.
`O=C1NCc2c(-c3cnc4cnccn34)ccc(Nc3ccc(N4[C@@H]5CC[C@H]4C[C@H](O)C5)cn3)c21` [I-320, 7-((5-((1R,3s,5S)-3-hydroxy-8-azabicyclo [3,2.1]octan-8-yl)pyridin-2-yl)amino)-4-(imidazo[1,2-a]pyrazin-3-yl)isoindolin-1-one]: the IC50 is less than 100 nM.
In the case of `CN(C)Cc1nc(Nc2ccc(-c3cnc4cc(F)ccn34)c3c2C(=O)NC3)ccc1N1CC[C@H](F)[C@@H](O)C1` [I-701, 7-((6-((dimethylamino)-methyl)-5-((3S.4S]-4-fluoro-3-hydroxypiperidin-1-yl)pyridin-2-yl)amino)-4-(7-fluoroimidazo [1,2-a]pyridin-3-yl)isoindolin-1-one] it was less than 100 nM.
